{"source": "patent US8653096B2", "about": "“Chemokine receptor antagonists and methods of use thereof” (Millennium Pharmaceuticals, Inc., priority 2001, dated 2014)", "target": "T1, RANTES/MIP-1α chemokine receptor (CCR1) in THP-1 cell membranes (Homo sapiens, UniProt P32246)", "T1 construct": "Membranes were prepared from THP-1 cells (ATCC #TIB202); host or cells: THP-1 cells (membrane preparation)", "T1 sequence (P32246 1-355)": "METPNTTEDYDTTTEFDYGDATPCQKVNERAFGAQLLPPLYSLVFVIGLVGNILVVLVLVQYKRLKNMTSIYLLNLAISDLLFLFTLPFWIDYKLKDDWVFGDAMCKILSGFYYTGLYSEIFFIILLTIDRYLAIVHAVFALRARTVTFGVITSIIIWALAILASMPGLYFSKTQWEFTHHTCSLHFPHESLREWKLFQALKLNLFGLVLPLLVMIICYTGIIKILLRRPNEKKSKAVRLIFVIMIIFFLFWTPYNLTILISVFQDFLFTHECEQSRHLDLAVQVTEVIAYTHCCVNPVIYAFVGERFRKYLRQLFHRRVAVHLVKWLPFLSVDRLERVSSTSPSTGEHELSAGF", "assay": "Receptor binding assay: 125I-RANTES or 125I-MIP-1α binding to THP-1 cell membranes", "details": "inhibitor concentration required for 50% inhibition of specific binding; 125I-RANTES or 125I-MIP-1α as ligand, THP-1 cell membranes; read-out: IC50", "data": [{"molecule": "CC(C)(O)c1ccc2c(c1)C(=CCCN1CCC(O)(c3ccc(Cl)cc3)CC1)c1cccnc1CO2", "note": "[Example 242, 4-(4-Chlorophenyl)-1-[3-(5,11-dihydro-7-(1-hydroxy-1-methyl)ethyl[1]benzoxepino[2,3-b]pyridin-5-ylidene)propyl]piperidin-4-ol]", "values": [{"measurement": "IC50", "value": "< 1000", "unit": "nM"}]}]}
